Paper PMC8999917, “Structure–Activity Relationship of Synthetic Ginkgolic Acid Analogs for Treating Type 2 Diabetes by PTPN9 Inhibition” (International Journal of Molecular Sciences, 2022)

Target: T1, PPARγ (Homo sapiens, UniProt P37231)
T1 construct: expressed in transfected cells; host or cells: CHO cells
T1 sequence (P37231 1-505): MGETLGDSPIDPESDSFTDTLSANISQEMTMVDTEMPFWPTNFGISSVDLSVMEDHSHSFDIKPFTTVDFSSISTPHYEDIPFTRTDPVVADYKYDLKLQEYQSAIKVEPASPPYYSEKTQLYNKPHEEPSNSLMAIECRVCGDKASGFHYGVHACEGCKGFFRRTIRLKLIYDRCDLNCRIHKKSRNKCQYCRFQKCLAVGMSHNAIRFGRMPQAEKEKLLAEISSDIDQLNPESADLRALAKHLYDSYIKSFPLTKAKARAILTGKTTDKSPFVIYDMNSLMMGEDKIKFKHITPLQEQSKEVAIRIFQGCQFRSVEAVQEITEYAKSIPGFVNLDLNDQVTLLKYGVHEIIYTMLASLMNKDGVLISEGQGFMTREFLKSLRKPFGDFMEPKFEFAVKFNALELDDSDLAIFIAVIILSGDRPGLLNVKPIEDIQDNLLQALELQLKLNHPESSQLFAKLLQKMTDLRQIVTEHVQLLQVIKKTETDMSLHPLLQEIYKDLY
Experiment: PPARγ PPRE-Luc reporter gene assay in CHO cells
Type: cell-based
Settings: 50 μM
Source text: Glucose uptake is regulated by three major mechanisms. First, through the activation of the Akt pathway, which promotes GLUT4 translocation via the activation of the signaling cascade involving the insulin receptor substrate (IRS) family and PI3 kinase through […] or G-protein-coupled receptors (GPCRs); second, through the upregulation of AMPK phosphorylation, which increases glucose uptake by inducing GLUT4 translocation to the plasma membrane; third, through the promotion of GLUT4 expression by PPARγ ligands. […] However, these compounds may induce GLUT4 expression and improve insulin sensitivity in the treated cells through their interactions with GPCR and/or PPARγ. Among GPCRs highly expressed in 3T3-L1 adipocytes and C2C12 muscle cells, GPR120 is the receptor that is most closely associated with glucose uptake. […] This was performed following a previously described method. In brief, CHO cells were plated to 96-well white plates (REF3610, Corning Life Sciences, NY, USA) in DMEM (HyClone^TM, Cytivalifescience, Seoul, Korea) supplemented with 10% FBS and 1% penicillin at a density of 1.5 × 10^4 cells/well. […] After incubation for another 24 h, luciferase activity was measured using the dual-luciferase assay system (Promega Korea, Seoul, Korea) according to the manufacturer’s instructions. […]

SMILES	PPARγ transcriptional activity (PPRE-Luc)
CCCCCCCCCCCCCCCOc1cccc(O)c1C(=O)O [Compound 1f]	No significant change
CCCCCCCCCCCCCOc1cccc(O)c1C(=O)O [Compound 1e]	No significant change
